Patent US20230061223A1, “USE OF 5-AMINO-2,3-DIHYDRO-1,4-PHTHALAZINEDIONE IN THE INHALATORY TREATMENT OF INFLAMMATORY PULMONARY DISEASES” (MetrioPharm AG, priority 2020, published 2023)
Read-outs that look alike come from different tables or passages of the source.

How the values were obtained:
[1] = system: cigarette smoke-induced 3-nitrotyrosine formation in the lung parenchyma; conditions: for 3-nitrotyrosine stained surface area, mean ± SEM: n=5 mice, room air 0.24, smoke alone 3.07
Description: 5-amino-2,3-dihydro-1,4-phthalazinedione sodium salt Form I was tested in an isolated, ventilated and perfused mouse lung system that was stimulated with cigarette smoke.
The isolated, ventilated and perfused mouse lung system (ILU) is an established model for studying acute effects of various conditions and drugs on lung parenchyma and vasculature. It is mainly used for examining effects of hypoxia and for evaluating the efficacy of potential drugs on the hypoxic pulmonary vasoreaction (cf. Weissmann et al. (2006) Proc Natl Acad Sci USA 103: 19093-19098).
C57BL/6J mice (n=25, 5 per group; male/female, 3-6 months, 20-30 g; Charles River GmbH, Sulzfeld, Germany) were anesthetized with a ketamine (100 mg/kg body weight) and xylazine (20 mg/kg body weight) intraperitoneal injection (Ceva Tiergesundheit GmbH, Dusseldorf, Germany) containing heparin (50 I.E. heparin/g body weight; Ratiopharm GmbH, Ulm, Germany). The lungs and the heart were removed from the chest cavity and placed on the ILU system (see FIGS. 1A and 1B). Lungs were ventilated in an isolated chamber using normoxic gas (21% O2, 5% CO2, 74% N2; 150 breaths per minute at the PEEP (positive end-expiratory pressure) of 3 cm H2O) and perfused with a modified Krebs-Henseleit buffer (120.0 mM NaCl, 4.3 mM KCl, 1.1 mM KH2PO4, 2.4 mM CaCl2, 1.3 mM MgCl2, 13.14 mM glucose, 0.25 mM hydroxyethyl starch 200000/0.5, 25.0 mM NaHCO3 adjusted to a constant pH range of […] L-arginine; Serag-Wissner GmbH & Co. KG, Naila, Germany) at a temperature of 37° C. Lung weight, right and left ventricle pressure, as well as ventilatory pressure were monitored and recorded during the whole experimental procedure. After 5-10 minutes, when the lung was properly flushed and all the parameters were stable, 5-amino-2,3-dihydro-1,4-phthalazinedione sodium salt was applied by adding 150 μl of a stock solution to 15 ml of the circulating perfusion buffer. The substance was applied 10 minutes prior to the first cigarette smoke application. Cigarette smoke was applied via trachea while lung is perfused with the buffer containing 5-amino-2,3-dihydro-1,4-phthalazinedione sodium salt. Cigarette smoke was prepared freshly before each application, by burning one cigarette (research cigarettes 3R4F, University of Kentucky, USA) in one minute using normoxic gas at the flow of 11/min and collected in a 11 glass bottle containing 5 g silica gel for removing the moist from the cigarette smoke. 50 ml of the cigarette smoke were taken via a syringe and applied to the lung via trachea (FIG. 1A) in deep breaths (periodic inflation for 3-4 s) over a period of 5 min. The application was done manually while carefully monitoring the inspiratory pressure to avoid damage of the lung. The cigarette smoke application was repeated three times with a 1 hour break in-between.
Five treatment groups (n=5, respectively) were investigated:
C: cigarette smoke+0.5 mM 5-amino-2,3-dihydro-1,4-phthalazinedione sodium salt
D: cigarette smoke+1 mM 5-amino-2,3-dihydro-1,4-phthalazinedione sodium salt
E: cigarette smoke+2 mM 5-amino-2,3-dihydro-1,4-phthalazinedione sodium salt
5-amino-2,3-dihydro-1,4-phthalazinedione sodium salt Form I was dissolved in water for injection (vehicle) at the required concentrations described above. Stock solutions were prepared in water for injection. Further 1:100 dilutions were made with modified Krebs-Henseleit buffer (see above). Stock solutions were stored at −70° C. in appropriate aliquots. The required amount of stock solution was thawed, and the corresponding working solution was prepared for immediate use.
One hour after the third cigarette smoke application lungs were removed from the system and fixed by inflating with formalin solution (via trachea) at the pressure of 12-15 cm H2O for two hours at room temperature. Afterwards the fixed lungs were kept in PBS (phosphate buffer saline, see below) at +4° C. until further dehydration and paraffin embedding.

[2] = aerosol characterisation (MMAD, FPF, FPM) by cascade impactor (Next Generation Impactor) after vibrating mesh nebulization; assay type: physicochemical; conditions: for FPF (fine particle fraction, <5 μm) / FPM (fine particle mass, 1 μm to 5 μm) / MMAD: vibrating mesh nebulizer; for FPF (fine particle fraction, <5 μm) / FPM (fine particle mass, 1 μm to 5 μm) / MMAD / released dosage: NGI at 4° C.; for released dosage at the mouthpiece as percentage of the nominal value: 3 min nebulization; for released dosage: at the mouthpiece, M-neb dose+ mesh nebulizer; for time of aerosol release: corresponds to 30 strokes/breaths; for residual amounts in the mouthpiece: mouthpiece SK-211
Description: It is expressly stated that the values and ranges disclosed herein refer to measurements of the MMAD, FPF and FPM by means of a cascade impactor (Next Generation Impactor, NGI) cooled down to 4° C.
The particle size distribution (FPM) and the mass median aerodynamic diameter (MMAD) of an aerosol generated from an aqueous solution containing 5-amino-2,3-dihydro-1,4-phthalazinedione sodium salt was analyzed.
Crystalline polymorph Form I of 5-amino-2,3-dihydro-1,4-phthalazinedione sodium salt was solved in physiological saline solution (double distilled water containing 0.9% NaCl). The final concentration solution was 20 mg/ml 5-amino-2,3-dihydro-1,4-phthalazinedione sodium salt.
The experimental procedure was carried out pursuant to Ph. Eur. 2.9.44 (Preparations for Nebulisation: Characterisation). A cascade impactor (Next Generation Impactor (NGI), Copley Scientific Ltd., Nottingham, UK) was used to determine the respective percentage for each fraction of the nebulized particles. The cascade impactor was cooled to 4° C. for the measurements
The nebulization of this aqueous solution of 5-amino-2,3-dihydro-1,4-phthalazinedione sodium salt was carried out by means of a vibrating mesh nebulizer (M-neb-dose+, NEBU-TEC, Eisenfeld, Germany). The thus generated aerosol was delivered to the cascade impactor by means of a mouthpiece (SK-211, NEBU-TEC, Eisenfeld, Germany).
The nebulization chamber (yellow stamp, 250 μl liquid discharge) was filled. The puff profile configured at the breath simulator was chosen in such a way that a correct simulation of inhalation by means of the nebulizer was ensured. The corresponding time was recorded.
The quantification of nebulized 5-amino-2,3-dihydro-1,4-phthalazinedione sodium salt per cascade was carried out after extraction from the cascade pans (stage 1-8) by means of HPLC with reference to an external standard calibration curve (range 0-200 μg/ml; correlation coefficient: 0.9999).
Single values obtained for each cascade were added. […] MMAD, FPF and FPM were calculated from the obtained values: […]
For comparison, the particle size distribution (FPF and FPM) and the mass median aerodynamic diameter (MMAD) of an aerosol generated from a physiological saline solution containing salbutamol sulfate was analyzed (not part of the invention). The procedure was the same as described in Example 2.
Salbutamol is one of the most widely used substances for acute asthma attacks. It is often administered via metered-dose inhalers. Therefore, a physiological saline solution of salbutamol sulfate was tested in order to determine the particle size distribution. The standard dosage (Albutol Sulfate) of 180 μg (90 μg/spray application, 2 spray applications per inhalation session) was dissolved in physiological saline.
The procedure was the same as described in Example 2.
The standard dosage (Atrovent) of 18 μg/spray application was dissolved in physiological saline.

[3] = 20 mg/ml in physiological saline
[4] = aerosol from physiological saline solution
[5] = standard dosage in physiological saline

Compound | released dosage at the mouthpiece as percentage of the nominal value [2] [%] | FPF (fine particle fraction, <5 μm) [2, 4] [%] | MMAD [2, 4] [μm] | time of aerosol release [2] [min] | residual amounts in the mouthpiece [2] | FPM (fine particle mass, 1 μm to 5 μm) [2, 4] [%] | released dosage [2, 5] [µg] | FPM (fine particle mass, 1 μm to 5 μm) [2, 5] [µg] | also measured
Nc1cccc2c(=O)[nH][nH]c(=O)c12.[Na] [5-amino-2,3-dihydro-1,4-phthalazinedione sodium salt] | 95 | 74.3 | 3.1 | 3 | No residual amounts |  |  |  | effect on cigarette smoke induced 3-nitrotyrosine formation (in words) ([1]; 0.5 mM in perfusion buffer): moderate effect; effect on cigarette smoke induced 3-nitrotyrosine formation (in words) ([1]; 1 mM in perfusion buffer): almost completely abolished; effect on cigarette smoke induced 3-nitrotyrosine formation (in words) ([1]; 2 mM in perfusion buffer): almost completely abolished; cigarette smoke-induced 3-nitrotyrosine formation in the lung parenchyma, pre-treatment (in words) ([1]; ILU model, pre-treatment): prevents; 3-nitrotyrosine stained surface area, mean ± SEM ([1]; cigarette smoke + 0.5 mM in perfusion buffer): 2.24 ± 0.28 % area; 3-nitrotyrosine stained surface area, mean ± SEM ([1]; cigarette smoke + 1 mM in perfusion buffer): 0.72 ± 0.26 % area; 3-nitrotyrosine stained surface area, mean ± SEM ([1]; cigarette smoke + 2 mM in perfusion buffer): 0.37 ± 0.13 % area; ROS/RNS levels in cigarette smoke-stimulated mouse lung (in words) ([1]; ex vivo mouse lung, 0.5-2 mM): dose-dependent reduction of ROS/RNS levels down to control levels; FPF (fine particle fraction, <5 μm) [2, 3]: 3.5 mg; FPM (fine particle mass, 1 μm to 5 μm) [2, 3]: 3300 µg; FPM (fine particle mass, 1 μm to 5 μm) ([2]; aerosol from physiological saline solution, sodium salt): 69.0%; released dosage [2, 3]: 4700 µg; FPF in comparison ([2]; versus ipratropium bromide): slightly higher; FPM in comparison ([2]; versus ipratropium bromide): slightly smaller; MMAD in comparison ([2]; versus ipratropium bromide): clearly smaller; FPF in comparison ([2]; versus salbutamol sulfate): slightly higher; FPM in comparison ([2]; versus salbutamol sulfate): in a similar range; MMAD in comparison ([2]; versus salbutamol sulfate): clearly smaller
CC(C)[N+]1(C)[C@@H]2CC[C@H]1CC(OC(=O)C(CO)c1ccccc1)C2.[Br-] (stereo partly drawn) [ipratropium bromide, reference compound] | 86 |  | 3.59 | 3 | No residual amounts | 69.4 | 15 | 10 | 
salbutamol sulfate [reference compound] | 92 | 73.3 | 3.57 | 3 | No residual amounts | 69.1 | 166 | 115 | FPF (fine particle fraction, <5 μm) [2, 5]: 0.122 mg
